Experimental data from patent US9913468B2, “Microbicidal composition” (Dow Global Technologies LLC, priority 2013, dated 2018).
Where two headings read alike, the source gives them in different places.

Experiments:
Type in all cases: cell-based
[1] = system: Staphylococcus aureus ATCC #6538; assay: MIC / synergy index test in 96 well microtiter plates, Gram positive bacteria; settings: S. aureus, 1/10 TSB; for MIC: Staphylococcus aureus, ATCC6538, 24 h, DTEA alone, read-out: MIC alone, CB (compound B)
Protocol: (§1) Surfactants and biocides were evaluated for synergy by determining the synergy index (S.I.) of the combination. Synergy index was calculated based on minimum inhibitory concentrations (MIC) of two antimicrobial compounds (A and B) alone and in combinations. The tests organisms were Gram negative bacteria (Pseudomonas aeruginosa ATCC #15442), Gram positive bacteria (Staphylococcus aureus ATCC #6538), yeast (Candida albicans ATCC#10203) and mold (Aspergillus niger ATCC#16404). Contact time for the bacteria was 24 and 48 hours, yeast was 48 and 72 hrs, and 3 and 7 days for mold. The test was carried out in 96 well microtiter plates. R^1O(CH2CH(CH3)O)5(CH2CH2O)9H, where R^1 is 2-ethylhexyl Surf. A R^2O(CH2CH(CH3)O)3(CH2CH2O)5H Surf. D R^2O(CH2CH(CH3)O)3(CH2CH2O)7H Surf. E In Surf. D and Surf. E, R^2 is a mixture of C8-C14 linear alkyl groups (70% C8-C10 linear alkyl and 30% C12-C14 linear alkyl) Inoculums Used
(§2) The pH of the Triptic soy broth was 7.3 and the Potato dextrose broth was 5.1.
(§3) SI is calculated as follows: Ca/CA+Cb/CB=Synergy Index (“SI”) Wherein: • CA=concentration of compound A in ppm, acting alone, which produced an end point (MIC of Compound A). • Ca=concentration of compound A in ppm, in the mixture, which produced an end point. • CB=concentration of compound B in ppm, acting alone, which produced an end point (MIC of Compound B). • Cb=concentration of compound B in ppm, in the mixture, which produced an end point. When the sum of Ca/CA and Cb/CB is greater than one, antagonism is indicated.

[2] = system: Aspergillus niger ATCC#16404; assay: MIC / synergy index test in 96 well microtiter plates, mold; settings: 3rd day, PDB; for MIC: Aspergillus niger, ATCC16404, DTEA alone, A. niger, read-out: MIC alone, CB (compound B)
Protocol: as §1, §2, §3

[3] = system: Candida albicans ATCC#10203; assay: MIC / synergy index test in 96 well microtiter plates, yeast; settings: C. albicans, PDB; for MIC: Candida albicans, ATCC10203, 48 h, DTEA alone, read-out: MIC alone, CB (compound B)
Protocol: as §1, §2, §3

[4] = system: Pseudomonas aeruginosa ATCC #15442; assay: MIC / synergy index test in 96 well microtiter plates, Gram negative bacteria; settings: ATCC15442, 24 h, read-out: MIC alone, CB (compound B)
Protocol: as §1, with “Used […]” for “Used”
(§4) SI is calculated as follows: Ca/CA+Cb/CB=Synergy Index (“SI”) Wherein: • CA=concentration of compound A in ppm, acting alone, which produced an end point (MIC of Compound A). • Ca=concentration of compound A in ppm, in the mixture, which produced an end point. • CB=concentration of compound B in ppm, acting alone, which produced an end point (MIC of Compound B). • Cb=concentration of compound B in ppm, in the mixture, which produced an end point. […]

[5] = system: any organism tested (Pseudomonas aeruginosa, Staphylococcus aureus, Candida albicans, Aspergillus niger); assay: Synergy of other biocides paired with the surfactants, any organism tested; settings: listed under Surf. D; except for one data point
Protocol: as §1, §4

[6] = inoculum 1.156E+06, Surf. A series

Compound: CCCCCCCCCCSCCN [DTEA, 2-decylthioethylamine]
- MIC [1, 6]: 4 µg/mL
- MIC ([1]; inoculum 1.156E+06, Surf. E series): 5 µg/mL
- MIC ([1]; inoculum 1.8E+05, Surf. D series): 5 µg/mL
- MIC [2, 6]: 200 µg/mL
- MIC ([2]; inoculum 1.156E+06, Surf. D series): 100 µg/mL
- MIC ([2]; inoculum 1.56E+06, Surf. E series): 200 µg/mL
- MIC [3, 6]: 50 µg/mL
- MIC ([3]; inoculum 1.8E+06, Surf. E series): 50 µg/mL
- MIC ([3]; inoculum 5.72E+05, Surf. D series): 40 µg/mL
- MIC [4]: 20 µg/mL

Compound: CCCCNC(=O)OCC#CI [IPBC]
- Ratio of surfactant to biocide where synergy was observed [5]: synergistic only at 1:0.05 or worse

Compound: Cn1sc2ccccc2c1=O [MBIT]
- Ratio of surfactant to biocide where synergy was observed [5]: synergistic only at 1:0.05 or worse

Compound: R^1O(CH2CH(CH3)O)5(CH2CH2O)9H, where R^1 is 2-ethylhexyl [Surf. A]
- MIC alone, CA (compound A) ([1]; Surf. A alone, 24 hrs, inoculum 1.156E+06): >20000 ppm
- MIC alone, CA (compound A) ([2]; Surf. A alone, inoculum 1.156E+06): >20000 ppm
- MIC alone, CA (compound A) ([3]; Surf. A alone, 48 hrs, inoculum 1.156E+06): >20000 ppm
